Patent US20150105252A1, “SUBSTITUTED PYRAZOLES AS HERBICIDES” (E I DU PONT DE NEMOURS AND COMPANY, priority 2013, published 2015)

How the values were obtained:
corn [1] = experiment: Test C preemergence; type: in vivo, Zea mays; conditions: for Plant response rating (scale of 0 to 100), Corn: 250 g ai/ha
In short: (§1)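 Seeds sown in loam–sand blend and treated preemergence with test chemicals in non-phytotoxic solvent with surfactant; postemergence plants in peat-based medium, treated at 2–18 cm (1- to 4-leaf stage). Greenhouse 13 to 15 days, then visual rating versus controls, 0 (no effect) to 100 (complete control).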

pigweed = experiment: Test A postemergence; type: in vivo, Amaranthus retroflexus
In short: (§2)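 Both timings tested concurrently in loam/sand soil: preemergence by directed soil spray, postemergence on plants of 2–10 cm at the one- to two-leaf stage. Greenhouse holding period was approximately 10 days before visual injury assessment (0–100, 0 = no effect).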

sedge, umbrella = experiment: Test B flood; type: in vivo, Cyperus difformis; conditions: 250 g ai/ha, visual rating on 0 to 100 scale (0 no effect, 100 complete control), 13 to 15 days
In short: (§3)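 Response scored visually, 0–100 relative to controls, 13–15 days after the compound was applied into paddy water; plants were at the 2-leaf stage in pots kept flooded to 3 cm.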

ducksalad = experiment: Test B flood; type: in vivo, Heteranthera limosa; conditions: 250 g ai/ha, visual rating on 0 to 100 scale (0 no effect, 100 complete control), 13 to 15 days
In short: as §3

wheat [2] = experiment: Test C preemergence; type: in vivo, Triticum aestivum; conditions: for Plant response rating (scale of 0 to 100), Wheat: 250 g ai/ha
Excerpt: Seeds of plant species selected from blackgrass (Alopecurus myosuroides), ryegrass, Italian (Italian ryegrass, Lolium multiflorum), wheat (winter wheat, Triticum aestivum), galium (catchweed bedstraw, Galium aparine), corn (Zea mays), crabgrass, large (large crabgrass, Digitaria sanguinalis), foxtail, giant (giant foxtail, Setaria faberii), johnsongrass (Sorghum halepense), lambsquarters (Chenopodium album), morningglory (Ipomoea coccinea), nutsedge, yellow (yellow nutsedge, Cyperus esculentus), pigweed (redroot pigweed, Amaranthus retroflexus), ragweed (common ragweed, Ambrosia elation), soybean (Glycine max), barnyardgrass (Echinochloa crus-galli), oilseed rape (Brassica napus), waterhemp (common waterhemp, Amaranthus rudis), oat, wild (wild oat, Avena fatua), kochia (Kochia scoparia), Surinam grass (Brachiaria decumbens), foxtail, green (green foxtail, Setaria viridis), goosegrass (Eleusine indica), bromegrass, downy (downy bromegrass, Bromus tectorum), nightshade (eastern black nightshade, Solanum ptycanthum), cocklebur (common cocklebur, Xanthium strumarium), cupgrass, woolly (woolly cupgrass, Eriochloa villosa), bermudagrass (Cynodon dactylon), sunflower, (common oilseed sunflower, Helianthus annuus), Russian thistle (Salsola kali), and velvetleaf (Abutilon theophrasti) were planted into a blend of loam soil and sand and treated preemergence with test chemicals formulated in a non-phytotoxic solvent mixture which included a surfactant.
At the same time, plants selected from these crop and weed species and also chickweed (common chickweed, Stellaria media), canarygrass (littleseed canarygrass, Phalaris minor), and deadnettle (henbit deadnettle, Lamium amplexicaule), were planted in pots containing Redi-Earth® planting medium (Scotts Company, 14111 Scottslawn Road, Marysville, Ohio 43041) comprising spaghnum peat moss, vermiculite, wetting agent and starter nutrients and treated with postemergence applications of test chemicals formulated in the same manner. Plants ranged in height from 2 to 18 cm (1- to 4-leaf stage) for postemergence treatments. Treated plants and controls were maintained in a greenhouse for 13 to 15 days, after which time all species were compared to controls and visually evaluated. Plant response ratings, summarized in Table C, are based on a scale of 0 to 100 where 0 is no effect and 100 is complete control. A dash (-) response means no test result.

corn [3] = experiment: Test A preemergence; type: in vivo, Zea mays; conditions: preemergence
In short: as §2

nutsedge, yellow = experiment: Test C preemergence; type: in vivo, Cyperus esculentus; conditions: for Plant response rating (scale of 0 to 100), Nutsedge, Yellow: 250 g ai/ha
In short: as §1

crabgrass, large = experiment: Test A postemergence; type: in vivo, Digitaria sanguinalis
In short: as §2

morningglory = experiment: Test A preemergence; type: in vivo, Ipomoea spp.; conditions: preemergence
In short: as §2

foxtail, giant [4] = experiment: Test C preemergence; type: in vivo, Setaria faberii; conditions: for Plant response rating (scale of 0 to 100), Foxtail, Giant: 250 g ai/ha
In short: as §1

velvetleaf = experiment: Test A preemergence; type: in vivo, Abutilon theophrasti; conditions: preemergence
In short: as §2

wheat [5] = experiment: Test A postemergence; type: in vivo, Triticum aestivum
In short: as §2

foxtail, giant [6] = experiment: Test A preemergence; type: in vivo, Setaria faberii; conditions: preemergence
In short: as §2

oilseed rape = experiment: Test C preemergence; type: in vivo, Brassica napus; conditions: for Plant response rating (scale of 0 to 100), Oilseed Rape: 250 g ai/ha
In short: as §1

galium = experiment: Test C preemergence; type: in vivo, Galium aparine; conditions: for Plant response rating (scale of 0 to 100), Galium: 250 g ai/ha
In short: as §1

[7] = preemergence, 31 g ai/ha, visual rating, scale 0 to 100 (0 no effect, 100 complete control), 13 to 15 days
[8] = preemergence, 62 g ai/ha, 13 to 15 days, scale 0 to 100, 0 = no effect, 100 = complete control
[9] = preemergence, 125 g ai/ha, scale 0 to 100, 0 is no effect, 100 is complete control
[10] = Postemergence, 500 g ai/ha, visual rating after approx. 10 days, 0 to 100 scale (0 no effect, 100 complete control)
[11] = postemergence, 125 g ai/ha, about 10 days, visual rating on 0 to 100 scale (0 no effect, 100 complete control)
[12] = 125 g ai/ha, visual injury, 0 to 100 scale, approx. 10 days
[13] = 500 g ai/ha, visual injury after approx. 10 days, 0 to 100 scale (0 no effect, 100 complete control)
[14] = Preemergence, 16 g ai/ha, scale 0 to 100

SMILES	Corn plant response rating (corn [1]; [7])	Plant response rating, Corn (corn [1]; [8])	Corn plant response rating (corn [1]; [9])	Pigweed plant response rating (pigweed; [10])	Pigweed plant response rating (pigweed; [11])	Plant response rating, Sedge, Umbrella (sedge, umbrella)	Plant response rating, Ducksalad (ducksalad)	Wheat plant response rating (wheat [2]; [7])	Plant response rating, Wheat (wheat [2]; [8])	Wheat plant response rating (wheat [2]; [9])	Corn plant response rating (corn [3]; [12])	Corn plant response rating (corn [3]; [13])	Nutsedge, Yellow plant response rating (nutsedge, yellow; [7])	Plant response rating, Nutsedge, Yellow (nutsedge, yellow; [8])	Crabgrass, Large plant response rating (crabgrass, large; [10])	Crabgrass, Large plant response rating (crabgrass, large; [11])	Morningglory plant response rating (morningglory; [12])	Morningglory plant response rating (morningglory; [13])	Foxtail, Giant plant response rating (foxtail, giant [4]; [7])	Plant response rating, Foxtail, Giant (foxtail, giant [4]; [8])	other results
CCCc1cc(C(=O)NCC)nn1Cc1ccnc(C(F)(F)F)c1 [Compound 95]	35	50	80	100	100	75	85	5	55	60	50	90	50	80	100	90	100	100	100	100	Plant response rating (scale of 0 to 100), Corn (corn [1]; Preemergence): 95; Plant response rating (scale of 0 to 100), Wheat (wheat [2]; Preemergence): 90; Plant response rating (scale of 0 to 100), Nutsedge, Yellow (nutsedge, yellow; Preemergence): 90; Nutsedge, Yellow plant response rating (nutsedge, yellow; [9]): 85; Plant response rating (scale of 0 to 100), Foxtail, Giant (foxtail, giant [4]; Preemergence): 100; Foxtail, Giant plant response rating (foxtail, giant [4]; [9]): 100; Velvetleaf plant response rating (velvetleaf; [12]): 90; Velvetleaf plant response rating (velvetleaf; [13]): 100; Wheat plant response rating (wheat [5]; [10]): 90; Wheat plant response rating (wheat [5]; [11]): 80; Foxtail, Giant plant response rating (foxtail, giant [6]; [12]): 100; Foxtail, Giant plant response rating (foxtail, giant [6]; [13]): 100; Plant response rating (scale of 0 to 100), Oilseed Rape (oilseed rape; Preemergence): 100; Oilseed Rape plant response rating (oilseed rape; [7]): 100; Plant response rating, Oilseed Rape (oilseed rape; [8]): 100; Oilseed Rape plant response rating (oilseed rape; [9]): 100; Plant response rating (scale of 0 to 100), Galium (galium; Preemergence): 100; Galium plant response rating (galium; [7]): 100; Plant response rating, Galium (galium; [8]): 100; Galium plant response rating (galium; [9]): 100
CCc1cc(C(=O)NC2CC2)nn1Cc1ccnc(OC(F)F)c1 [Compound 98]	35	45	90	100	100	80	70	30	45	70	70	80	30	75	90	90	100	100	100	100	Plant response rating (scale of 0 to 100), Corn (corn [1]; Preemergence): 95; Plant response rating (scale of 0 to 100), Wheat (wheat [2]; Preemergence): 90; Plant response rating (scale of 0 to 100), Nutsedge, Yellow (nutsedge, yellow; Preemergence): 95; Plant response rating (scale of 0 to 100), Foxtail, Giant (foxtail, giant [4]; Preemergence): 100; Foxtail, Giant plant response rating (foxtail, giant [4]; [9]): 100; Velvetleaf plant response rating (velvetleaf; [12]): 100; Velvetleaf plant response rating (velvetleaf; [13]): 100; Wheat plant response rating (wheat [5]; [10]): 80; Wheat plant response rating (wheat [5]; [11]): 70; Foxtail, Giant plant response rating (foxtail, giant [6]; [12]): 100; Foxtail, Giant plant response rating (foxtail, giant [6]; [13]): 100; Plant response rating (scale of 0 to 100), Oilseed Rape (oilseed rape; Preemergence): 100; Oilseed Rape plant response rating (oilseed rape; [7]): 100; Plant response rating, Oilseed Rape (oilseed rape; [8]): 100; Oilseed Rape plant response rating (oilseed rape; [9]): 100; Plant response rating (scale of 0 to 100), Galium (galium; Preemergence): 100; Galium plant response rating (galium; [7]): 100; Plant response rating, Galium (galium; [8]): 100; Galium plant response rating (galium; [9]): 100
CCc1cc(C(=O)NOC(C)C)nn1Cc1ccnc(C(F)(F)F)c1 [Compound 101]	0	95	100	90	60	60	70	5	85	85	70	100	5	25	90	80	80	100	80	98	Plant response rating, Corn (corn [1]; [14]): 0; Plant response rating, Wheat (wheat [2]; [14]): 0; Plant response rating, Nutsedge, Yellow (nutsedge, yellow; [14]): 5; Nutsedge, Yellow plant response rating (nutsedge, yellow; [9]): 75; Plant response rating, Foxtail, Giant (foxtail, giant [4]; [14]): 15; Foxtail, Giant plant response rating (foxtail, giant [4]; [9]): 100; Velvetleaf plant response rating (velvetleaf; [12]): 40; Velvetleaf plant response rating (velvetleaf; [13]): 100; Wheat plant response rating (wheat [5]; [10]): 100; Wheat plant response rating (wheat [5]; [11]): 80; Foxtail, Giant plant response rating (foxtail, giant [6]; [12]): 100; Foxtail, Giant plant response rating (foxtail, giant [6]; [13]): 100; Plant response rating, Oilseed Rape (oilseed rape; [14]): 75; Oilseed Rape plant response rating (oilseed rape; [7]): 90; Plant response rating, Oilseed Rape (oilseed rape; [8]): 98; Oilseed Rape plant response rating (oilseed rape; [9]): 100; Plant response rating, Galium (galium; [14]): 80; Galium plant response rating (galium; [7]): 80; Plant response rating, Galium (galium; [8]): 80; Galium plant response rating (galium; [9]): 80
